In patent publication US4952393A, “Organ infarct imaging with technetium labelled glucarate” (The General Hospital Corporation, priority 1988, dated 1990):
Where two headings read alike, the source gives them in different places.

Assays:
myocardial infarct = settings: Rossman et al., J. Nucl. Med. 16: 980-985 (1975); cited from earlier work
cerebral infarct = assay: Detection of cerebral infarct in the rat (gamma imaging, localization ratio); format: in vivo, Sprague-Dawley CD rats; settings: for DDC activity (mean +/- SD), ratio infarct:normal brain: 0.6 mCi, perfusion deficit marker; for Tc-99m-glucarate activity (mean +/- SD), ratio stroke regions to normal cerebral regions: i.v., 1.5-2.0 mCi
Procedure: Tc-99m-glucarate was used to visualize cerebral infarct regions in the rat brain.
Experimental cerebral infarcts were created in 28 Sprague-Dawley CD rats (Charles River Laboratories) by injection of thrombin-generated thrombi into an isolated carotid artery. […] Imaging was performed 1.5-2.0 hours later utilizing a gamma camera having a 3 mm diameter pin hole collimator. […] The gamma images obtained were analyzed by computer planimetry. Ratios of count densities in infarct regions and normal brain regions were calculated.

[1] = preparation made from 12 mg/ml glucarate
Procedure: Samples of ^99m -Tc-glucarate prepared as described in Example 1 from 6 and 12 mg/ml potassium glucarate were analyzed over a period of 7 hours.

acute myocardial infarct = assay: Detection of myocardial infarct in the dog (gamma camera imaging); settings: for visualization of area of acute myocardial necrosis / blood pool activity: 80 minutes after injection; for visualization of area of acute myocardial necrosis: 10 mCi
Procedure: Mongrel dogs (n=3) were anesthetized with intravenous pentobartitol (30 mg/kg), and respiration maintained on a Harvard respirator. Left thoractomy was performed, the heart suspended in a pericardial cradle and a segment of the left anterior descending coronary artery (LAD) approximately two thirds the distance from the apex to the base was dissected free. The LAD was then occluded with a silk ligature. After three hours of LAD occlusion, the occlusive ligature was removed and reperfusion was established. At 15 minutes of reperfusion, 200 uCi of indium labeled R11D10 Fab-DTPA (Centocor, Inc.) was injected, and 30 seconds later, 10 mCi of technetium labeled glucarate was injected. Serial imaging with a gamma camera was initiated immediately upon tracer administration.
After 5 hours of in vivo imaging sessions, the dogs were sacrificed by pentobarbital overdose. Then, the cardiac tissue was stained with an intravenous triphenyltetrazolium chloride infusion. The heart was excised, washed with cold water, and imaged as a whole excised heart; and also as heart slices cut parallel to the atrioventricular groove in four slices after overnight storage at 4° C. Each slice was then divided into eight equal pieces and each piece subdivided into epicardial and endocardial samples, weighed and then counted in a gamma well counter (LKB Compu Gamma counter) for distribution of the various radioisotopes. […] Blood samples from the contralateral vein were obtained at 1, 2, 3, 4, 5, 10, 15, 20, 30, 45, 60, and 75 minutes. […] At the time of sacrifice, tissue samples from the liver, lungs, kidneys, spleen, and skeletal muscles were also obtained.

[2] = Biodistribution of 99mTc-glucarate in various organs in Balb/c mice; format: in vivo; settings: i.v., 100 uCi
Procedure: Biodistribution studies were carried out in Balb/c mice. The mice (3 mice per group) were injected intravenously with 100 uCi of technetium-labeled D-glucarate. […]

[3] = room temperature, 1 hr
Procedure: Monopotassium glucarate (25 mg) was dissolved in 0.2M bicarbonate (1.0 ml) at pH 8.0. To 500 ul of glucarate solution, 40 ul of stannous chloride (2.5 mg/ml) in 0.1M acetic acid was added, followed by 500 ul of ^99m Tc generator eluate (60 mCi). The resulting solution was allowed to stand for 5 minutes at room temperature, and then analyzed for radiochemical purity by paper chromatography (Whatman 3MM, 60% CH3 CN:40% H2 O)
^99m Tc-glucarate was prepared as described in Example 1 using different concentrations of potassium glucarate (0.09-12.25 mg/ml). The products were analyzed by paper chromatography (Whatman 3MM, 60% CH3 CN:40%H2 O; ^99m TcO4 ^-Rf= 1.0, ^99m Tc-glucarate,Rf=0.4; ^99m TcO2 ×H2 O, Rf=0).

[4] = dog, listed as 99m Tc-glucarate

## ^99m Tc-D-glucoheptonate
Myocardial infarct
  success as an imaging agent for myocardial infarct: less successful

## T1-201 diethyldithiocarbamate [DDC, reference compound]
Cerebral infarct; 1 hour after infarct, rats
  DDC activity (mean +/- SD), ratio infarct:normal brain: 0.3 +/- 0.1
Cerebral infarct; 3 hours after infarct, rats
  DDC activity (mean +/- SD), ratio infarct:normal brain: 0.3 +/- 0.3
Cerebral infarct; 5 hours after infarct, rats
  DDC activity (mean +/- SD), ratio infarct:normal brain: 0.4 +/- 0.2
Cerebral infarct; 24 hours after infarct, rats
  DDC activity (mean +/- SD), ratio infarct:normal brain: 0.3 +/- 0.2

## Tc-99m-glucarate
Cerebral infarct; 1, 3, 5 and 24 hours, rats
  effect of duration of cerebral injury on localization: did not appear to affect localization
Cerebral infarct; imaging in the brain
  diffusion across the blood-brain barrier: can diffuse across the blood-brain barrier
Cerebral infarct; injection 1 hour after infarct, rats
  Tc-99m-glucarate activity (mean +/- SD), ratio stroke regions to normal cerebral regions: 2.98 +/- 0.7
Cerebral infarct; injection 3 hours after infarct, rats
  Tc-99m-glucarate activity (mean +/- SD), ratio stroke regions to normal cerebral regions: 4.1 +/- 1.7
Cerebral infarct; injection 5 hours after infarct, rats
  Tc-99m-glucarate activity (mean +/- SD), ratio stroke regions to normal cerebral regions: 4.1 +/- 2.4
Cerebral infarct; injection 24 hours after infarct, rats
  Tc-99m-glucarate activity (mean +/- SD), ratio stroke regions to normal cerebral regions: 4.8 +/- 1.9
Cerebral infarct; rats
  accumulation in stroke compared with 99mTc-glucoheptonate: more rapid and intense
  ratios of activity in stroke regions to normal cerebral regions, in words: maximal in all stroke animals
  time to cerebral infarct image: one
  visualization of cerebral infarct regions by gamma scintigraphy: All cerebral infarct regions were visualized
[1]
  stable for a period of: about 2 hours
Acute myocardial infarct; dog
  visualization of area of acute myocardial necrosis: clearly visible
  blood pool activity: minimum blood activity
Acute myocardial infarct; [4]
  visualization of area of acute myocardial necrosis: clearly visualized
  blood pool activity: minimum blood pool activity
Acute myocardial infarct; dogs
  time to avid myocardial infarct image: one and a half
Acute myocardial infarct; excised heart slices, dog
  uptake in area of myocardial infarction of the heart slices: Distinct uptake
[2]; 1 hour
  Biodistribution, Blood: 1.72 ± 0.43 % Injected Dose Per Gram
  Biodistribution, Heart: 0.63 ± 1.10 % Injected Dose Per Gram
  Biodistribution, Intestine: 2.90 ± 1.12 % Injected Dose Per Gram
  Biodistribution, Kidneys: 24.3 ± 4.15 % Injected Dose Per Gram
  Biodistribution, Liver: 1.54 ± 0.51 % Injected Dose Per Gram
  Biodistribution, Lungs: 3.90 ± 1.80 % Injected Dose Per Gram
  Biodistribution, Muscle: 0.32 ± 0.20 % Injected Dose Per Gram
  Biodistribution, Spleen: 0.44 ± 0.76 % Injected Dose Per Gram
  Biodistribution, Stomach: 0.935 % Injected Dose Per Gram
[2]; 4 hours
  Biodistribution, Blood: 1.26 ± 0.22 % Injected Dose Per Gram
  Biodistribution, Heart: 0.75 ± 1.30 % Injected Dose Per Gram
  Biodistribution, Intestine: 2.02 ± 0.90 % Injected Dose Per Gram
  Biodistribution, Kidneys: 28.50 ± 0.75 % Injected Dose Per Gram
  Biodistribution, Liver: 1.49 ± 0.08 % Injected Dose Per Gram
  Biodistribution, Lungs: 3.43 ± 1.35 % Injected Dose Per Gram
  Biodistribution, Muscle: 2.31 ± 2.98 % Injected Dose Per Gram
  Biodistribution, Stomach: 3.49 ± 5.10 % Injected Dose Per Gram
[2]; 8 hours
  Biodistribution, Blood: 0.90 ± 0.29 % Injected Dose Per Gram
  Biodistribution, Heart: 0.30 ± 0.52 % Injected Dose Per Gram
  Biodistribution, Intestine: 0.89 ± 0.46 % Injected Dose Per Gram
  Biodistribution, Kidneys: 19.20 ± 5.00 % Injected Dose Per Gram
  Biodistribution, Liver: 1.03 ± 0.18 % Injected Dose Per Gram
  Biodistribution, Lungs: 1.95 ± 1.04 % Injected Dose Per Gram
  Biodistribution, Muscle: 0.59 ± 0.82 % Injected Dose Per Gram
  Biodistribution, Stomach: 1.13 ± 0.98 % Injected Dose Per Gram
[2]; 24 hours
  Biodistribution, Blood: 0.56 ± 0.09 % Injected Dose Per Gram
  Biodistribution, Intestine: 0.58 ± 0.36 % Injected Dose Per Gram
  Biodistribution, Kidneys: 8.4 ± 1.74 % Injected Dose Per Gram
  Biodistribution, Liver: 0.42 ± 0.05 % Injected Dose Per Gram
  Biodistribution, Lungs: 1.52 ± 1.02 % Injected Dose Per Gram
  Biodistribution, Muscle: 0.68 ± 1.00 % Injected Dose Per Gram
  Biodistribution, Stomach: 0.39 ± 0.34 % Injected Dose Per Gram
[3]; 0.09 mg/ml glucaric acid
  % 99mTc-Glucarate: 43.0%
  % 99mTcO2: 57.0%
[3]; 0.19 mg/ml glucaric acid
  % 99mTc-Glucarate: 59.0%
  % 99mTcO2: 41.0%
[3]; 0.38 mg/ml glucaric acid
  % 99mTc-Glucarate: 70.0%
  % 99mTcO2: 30.0%
[3]; 0.76 mg/ml glucaric acid
  % 99mTc-Glucarate: 75.6%
  % 99mTcO2: 24.4%
[3]; 1.53 mg/ml glucaric acid
  % 99mTc-Glucarate: 80.5%
  % 99mTcO2: 19.5%
[3]; 3.06 mg/ml glucaric acid
  % 99mTc-Glucarate: 88.5%
  % 99mTcO2: 11.5%
[3]; 6.12 mg/ml glucaric acid
  % 99mTc-Glucarate: 100.0%
  % 99mTcO2: .0%
[3]; 12.25 mg/ml glucaric acid
  % 99mTc-Glucarate: 100.0%
  % 99mTcO2: .0%
